Data published in PubChem BioAssay AID330 (DTP/NCI, 2004).
Where “and” joins values, the source holds several entries; their conditions need not be identical. Equal entries are not always repeated. Toxic doses and inconclusive results are not listed. Rule for the calls: active = survival T/C of 150% or more; inactive = T/C below 125% in these data.

System: P388 leukemia ip, CD2F1 mice, survival T/C
Assay: NCI In Vivo Anticancer Drug Screen. Data for tumor model P388 Leukemia (intraperitoneal) in CD2F1 (CDF1) mice
Conditions: endpoint: median survival time, higher = longer survival
Method in brief: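 Mice carrying the transplanted tumor received test compound or vehicle. Survival was recorded in each group, and the value is the treated-group measurement divided by that of the vehicle-treated control group.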

[1] = dose: 12.5 mg/kg/injection, schedule: Q01DX009 (ip), vehicle: saline with Tween-80
[2] = dose: 25.0 mg/kg/injection, schedule: Q01DX009 (ip), vehicle: saline with Tween-80
[3] = dose: 50.0 mg/kg/injection, schedule: Q01DX009 (ip), vehicle: saline with Tween-80
[4] = dose: 100.0 mg/kg/injection, schedule: Q01DX009 (ip), vehicle: saline with Tween-80
[5] = dose: 50.0 mg/kg/injection, schedule: Q01DX009 (ip), vehicle: saline
[6] = dose: 100.0 mg/kg/injection, schedule: Q01DX009 (ip), vehicle: saline
[7] = dose: 200.0 mg/kg/injection, schedule: Q01DX009 (ip), vehicle: saline
[8] = dose: 50.0 mg/kg/injection, schedule: Q01DX005 (ip), vehicle: Klucel (hydroxypropylcellulose) (HPC)
[9] = dose: 100.0 mg/kg/injection, schedule: Q01DX005 (ip), vehicle: Klucel (hydroxypropylcellulose) (HPC)
[10] = dose: 200.0 mg/kg/injection, schedule: Q01DX005 (ip), vehicle: Klucel (hydroxypropylcellulose) (HPC)
[11] = dose: 200.0 mg/kg/injection, schedule: Q01DX009 (ip), vehicle: saline with Tween-80
[12] = dose: 100.0 mg/kg/injection, schedule: Q01DX009 (ip), vehicle: Klucel (hydroxypropylcellulose) (HPC)
[13] = dose: 200.0 mg/kg/injection, schedule: Q01DX009 (ip), vehicle: Klucel (hydroxypropylcellulose) (HPC)

Measured: T/C

COc1ccc2c(Cc3ccccc3)c3[n+](cc2c1OC)CCc1cc2c(cc1-3)OCO2
inactive: dose: 1.56 mg/kg/injection, schedule: Q01DX005 (ip), vehicle: Klucel (hydroxypropylcellulose) (HPC) 113 % of control | dose: 3.12 mg/kg/injection, schedule: Q01DX005 (ip), vehicle: Klucel (hydroxypropylcellulose) (HPC) 115 % of control | dose: 6.25 mg/kg/injection, schedule: Q01DX005 (ip), vehicle: Klucel (hydroxypropylcellulose) (HPC) 113 % of control and 115 % of control | dose: 12.5 mg/kg/injection, schedule: Q01DX005 (ip), vehicle: Klucel (hydroxypropylcellulose) (HPC) 118 % of control

CCCCCOC(=O)c1ccc(O)cc1
inactive: [1] 108 % of control | [2] 100 % of control | [3] 99 % of control and 100 % of control | [4] 94 % of control

Cc1ccccc1C1OC2=C(Nc3ccc([N+](=O)[O-])cc3N2)C1=O (configuration not stated)
inactive: dose: 60.0 mg/kg/injection, schedule: Q01DX005 (ip), vehicle: Klucel (hydroxypropylcellulose) (HPC) 88 % of control | dose: 120.0 mg/kg/injection, schedule: Q01DX005 (ip), vehicle: Klucel (hydroxypropylcellulose) (HPC) 90 % of control | dose: 240.0 mg/kg/injection, schedule: Q01DX005 (ip), vehicle: Klucel (hydroxypropylcellulose) (HPC) 101 % of control

C/C(=N/N(C)C)c1ccc(Cl)cc1
inactive: dose: 100.0 mg/kg/injection, schedule: Q01DX001 (ip), vehicle: saline 100 % of control | dose: 200.0 mg/kg/injection, schedule: Q01DX001 (ip), vehicle: Klucel (hydroxypropylcellulose) (HPC) 108 % of control | dose: 200.0 mg/kg/injection, schedule: Q01DX001 (ip), vehicle: saline 108 % of control | dose: 400.0 mg/kg/injection, schedule: Q01DX001 (ip), vehicle: Klucel (hydroxypropylcellulose) (HPC) 106 % of control | dose: 400.0 mg/kg/injection, schedule: Q01DX001 (ip), vehicle: saline 106 % of control

CC1=C2CC(=O)OC(c3ccoc3)C2(C)CCC1C1(CC(=O)O)C2COC(=O)CC2OC1(C)C (configuration not stated)
inactive: dose: 0.75 mg/kg/injection, schedule: Q01DX009 (ip), vehicle: saline + alcohol 99 % of control | dose: 1.5 mg/kg/injection, schedule: Q01DX009 (ip), vehicle: saline + alcohol 97 % of control | dose: 3.0 mg/kg/injection, schedule: Q01DX009 (ip), vehicle: saline + alcohol 106 % of control | dose: 6.0 mg/kg/injection, schedule: Q01DX009 (ip), vehicle: saline + alcohol 101 % of control

O=S1(=O)CCN(Cc2ccncc2)CC1
inactive: [5] 100 % of control | [6] 98 % of control | [7] 100 % of control

COc1cc2ccc(=O)oc2cc1O
inactive: dose: 3.75 mg/kg/injection, schedule: Q01DX009 (ip), vehicle: saline with Tween-80 100 % of control | dose: 7.5 mg/kg/injection, schedule: Q01DX009 (ip), vehicle: saline with Tween-80 103 % of control and 98 % of control | dose: 15.0 mg/kg/injection, schedule: Q01DX009 (ip), vehicle: saline with Tween-80 100 % of control and 107 % of control | dose: 30.0 mg/kg/injection, schedule: Q01DX009 (ip), vehicle: saline with Tween-80 104 % of control and 91 % of control | [5] 95 % of control | dose: 50.0 mg/kg/injection, schedule: Q01DX009 (ip), vehicle: suspension in saline 99 % of control and 106 % of control | [6] 100 % of control | dose: 100.0 mg/kg/injection, schedule: Q01DX009 (ip), vehicle: suspension in saline 104 % of control and 109 % of control | [7] 100 % of control | dose: 200.0 mg/kg/injection, schedule: Q01DX009 (ip), vehicle: suspension in saline 107 % of control and 108 % of control | dose: 400.0 mg/kg/injection, schedule: Q01DX009 (ip), vehicle: saline 100 % of control | dose: 400.0 mg/kg/injection, schedule: Q01DX009 (ip), vehicle: suspension in saline 111 % of control

Cc1cc(O)c(NCCCN(C)C)c2c(=O)c3ccccc3sc12
inactive: [2] 97 % of control | [3] 93 % of control | [4] 110 % of control

Nc1nnc2nc(CC(=O)c3ccccc3)c(CC(=O)c3ccccc3)nn12
inactive: dose: 60.0 mg/kg/injection, schedule: Q01DX005 (ip), vehicle: saline 95 % of control | dose: 120.0 mg/kg/injection, schedule: Q01DX005 (ip), vehicle: saline 94 % of control | dose: 240.0 mg/kg/injection, schedule: Q01DX005 (ip), vehicle: saline 100 % of control

c1cc(-c2cc3cc(C4=NCCN4)ccc3s2)ccc1C1=NCCN1
inactive: dose: 25.0 mg/kg/injection, schedule: Q04DX003 (ip), vehicle: saline 115 % of control | dose: 50.0 mg/kg/injection, schedule: Q04DX003 (ip), vehicle: saline 111 % of control | dose: 100.0 mg/kg/injection, schedule: Q04DX003 (ip), vehicle: saline 98 % of control

CC(=O)C1=C(N)OCCC1
inactive: [5] 114 % of control | [6] 107 % of control | [7] 109 % of control

O=C(CC1(O)C(=O)Nc2c(Cl)cccc21)c1cccs1 (configuration not stated)
inactive: [8] 103 % of control | [9] 100 % of control | [10] 104 % of control

COc1cc(Cl)ccc1NC(=O)Oc1cc(C)c(I)cc1C
inactive: [3] 104 % of control | [4] 100 % of control | [11] 88 % of control

O=CNc1ccc(/C=C\c2ccnc3ccccc23)cc1
inactive: dose: 3.13 mg/kg/injection, schedule: Q01DX009 (ip), vehicle: saline with Tween-80 109 % of control | dose: 6.25 mg/kg/injection, schedule: Q01DX009 (ip), vehicle: saline with Tween-80 100 % of control | [1] 100 % of control | [2] 91 % of control

COc1ccc([N+](=O)[O-])c(O)c1OC
inactive: dose: 12.5 mg/kg/injection, schedule: Q01DX009 (ip), vehicle: other 94 % of control | dose: 25.0 mg/kg/injection, schedule: Q01DX009 (ip), vehicle: other 96 % of control | dose: 50.0 mg/kg/injection, schedule: Q01DX009 (ip), vehicle: other 97 % of control | dose: 100.0 mg/kg/injection, schedule: Q01DX009 (ip), vehicle: other 94 % of control | dose: 200.0 mg/kg/injection, schedule: Q01DX009 (ip), vehicle: other 96 % of control

O=C1Oc2ccccc2C(=O)C1=S1CCCC1
inactive: [8] 98 % of control | [9] 91 % of control | [10] 94 % of control

CC(=O)NC(CC(C)C)C(=O)O (configuration not stated)
inactive: [2] 95 % of control | [3] 86 % of control and 94 % of control | [12] 104 % of control | [4] 100 % of control and 105 % of control | [13] 114 % of control | [11] 118 % of control | dose: 400.0 mg/kg/injection, schedule: Q01DX009 (ip), vehicle: Klucel (hydroxypropylcellulose) (HPC) 100 % of control | dose: 400.0 mg/kg/injection, schedule: Q01DX009 (ip), vehicle: saline with Tween-80 105 % of control

COc1cc2ccc(/C=C/C(=O)c3ccc4c(c3)OCO4)cc2cc1OC
inactive: dose: 25.0 mg/kg/injection, schedule: Q01DX009 (ip), vehicle: water 103 % of control | dose: 50.0 mg/kg/injection, schedule: Q01DX009 (ip), vehicle: water 98 % of control | dose: 100.0 mg/kg/injection, schedule: Q01DX009 (ip), vehicle: water 97 % of control | dose: 200.0 mg/kg/injection, schedule: Q01DX009 (ip), vehicle: water 98 % of control | dose: 400.0 mg/kg/injection, schedule: Q01DX009 (ip), vehicle: water 91 % of control

Cc1[nH]nc2c(C/C=C/c3ccccc3)n[nH]c(=O)c12
inactive: dose: 50.0 mg/kg/injection, schedule: Q01DX009 (ip), vehicle: Klucel (hydroxypropylcellulose) (HPC) 98 % of control | [12] 100 % of control | [13] 101 % of control

c1ccc2c(NCCCCCCCCCCNc3c4ccccc4nc4ccccc34)c3ccccc3nc2c1
inactive: dose: 0.62 mg/kg/injection, schedule: Q## X009 (ip), vehicle: lactic acid 104 % of control | dose: 1.25 mg/kg/injection, schedule: Q## X009 (ip), vehicle: lactic acid 118 % of control | dose: 5.0 mg/kg/injection, schedule: Q## X009 (ip), vehicle: lactic acid 120 % of control | dose: 10.0 mg/kg/injection, schedule: Q## X009 (ip), vehicle: lactic acid 90 % of control

CN=C(N)N/N=C(\c1ccc(Cl)cc1)c1ccc([N+](=O)[O-])cc1Cl
inactive: dose: 25.0 mg/kg/injection, schedule: Q04DX002 (ip), vehicle: saline with Tween-80 100 % of control | dose: 50.0 mg/kg/injection, schedule: Q04DX002 (ip), vehicle: saline with Tween-80 101 % of control
